{"source": "patent US20080032897A1", "about": "“Methods of screening for inhibitors of autoinhibited proteins” (priority 2004, published 2008)", "key": {"full-length Pak1": {"target": "T1, full-length Pak1 (Homo sapiens, UniProt Q13153)", "T1 construct": "made in house; host or cells: Sf9 cells", "T1 sequence (Q13153 whole entry, the tested form may be a part)": "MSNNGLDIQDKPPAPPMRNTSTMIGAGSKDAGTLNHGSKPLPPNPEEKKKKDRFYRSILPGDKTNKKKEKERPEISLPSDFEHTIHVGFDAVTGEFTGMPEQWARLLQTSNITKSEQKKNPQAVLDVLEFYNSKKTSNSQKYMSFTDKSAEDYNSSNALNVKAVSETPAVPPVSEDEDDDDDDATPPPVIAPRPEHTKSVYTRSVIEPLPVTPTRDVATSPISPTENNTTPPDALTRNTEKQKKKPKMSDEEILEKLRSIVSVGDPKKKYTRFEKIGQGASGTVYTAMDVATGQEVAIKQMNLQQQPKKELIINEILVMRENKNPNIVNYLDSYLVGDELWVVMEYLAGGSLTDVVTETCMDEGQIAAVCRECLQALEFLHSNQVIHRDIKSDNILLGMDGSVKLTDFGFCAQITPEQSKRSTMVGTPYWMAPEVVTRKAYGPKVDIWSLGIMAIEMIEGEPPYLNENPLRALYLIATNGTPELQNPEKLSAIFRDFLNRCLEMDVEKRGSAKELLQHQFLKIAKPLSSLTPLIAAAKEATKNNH", "test": "luminescence-based (Kinase Glo) kinase assay, Cdc42-activated full-length Pak1", "format": "biochemical", "conditions": "384-well plates, ATP-dependent luminescence, FIG. 9C", "protocol": "In some embodiments, the kinase activity of these two proteins (wild-type full length kinase, and isolated kinase domain) is measured in parallel using a validated luminescence-based assay. In this assay, kinase activity is based on a measurement of the residual ATP in the reaction following kinase-mediated ATP hydrolysis (Kinase Glo®; Promega®). This is an endpoint assay in which kinase reactions are allowed to proceed until a predetermined timepoint at which point the addition of the Kinase Glo® detection mix containing luciferase and luciferin stops the kinase reaction and utilizes the residual ATP to convert luciferin to oxyluciferin with the accompanying emission of a photon of light. Intensity of the emitted light is linearly correlated with ATP concentration. […]\nThe isolated kinase domain or full-length Pak1 in assay buffer is aliquotted into individual wells of a 384-well plate using a Bio-Tek MicroFill®. […] The reaction is stopped by the addition of Kinase Glo® reagent (15 μl/well), and is incubated at room temperature for 10-30 minutes to allow development of luminescence. Luminescence is read in a Cary Eclipse (Varian®) fluorometer/luminometer outfitted for reading 384-well plates.\nA luminescence-based assay for kinase activity is used based on measurement of residual ATP in the reaction following kinase-mediated ATP hydrolysis. […]"}, "[1]": {"tested_on": "mixed-lineage kinases (MLKs)", "conditions": "reported; cited from earlier work"}, "Pak": {"tested_on": "Pak", "conditions": "reported; cited from earlier work"}, "N-WASP": {"tested_on": "N-WASP", "conditions": "cited from earlier work"}, "WASP": {"target": "T2, WASP (Homo sapiens, UniProt P42768)", "T2 sequence (P42768 with tags, fused parts or gaps limits assumed)": "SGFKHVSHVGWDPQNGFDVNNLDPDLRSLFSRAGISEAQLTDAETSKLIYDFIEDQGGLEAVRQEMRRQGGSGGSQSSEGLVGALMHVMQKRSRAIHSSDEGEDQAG", "conditions": "cited from earlier work"}}, "note": "Entries after “also recorded” stand apart in the source; their conditions may differ.", "data": [{"smiles": "CN[C@@H]1C[C@H]2O[C@@](C)([C@@H]1OC)n1c3ccccc3c3c4c(c5c6ccccc6n2c5c31)C(=O)NC4", "note": "[staurosporine]", "values": [{"measurement": "inhibition of Pak1 kinase activity", "setting": "full-length Pak1", "value": "successfully detects inhibition of Pak; also recorded: readily detected"}]}, {"smiles": "CCSCc1ccc2c(c1)c1c3c(c4c5cc(CSCC)ccc5n5c4c1n2[C@H]1C[C@](O)(C(=O)OC)[C@]5(C)O1)CNC3=O", "note": "[CEP-1347]", "values": [{"measurement": "potency against MLKs relative to Pak", "setting": "[1]", "value": "at least an order of magnitude more potent"}, {"measurement": "concentration at which Pak is inhibited", "setting": "Pak", "value": "low micromolar"}]}, {"smiles": "CN(C)C[C@H](O)Cn1c2ccc(Br)cc2c2cc(Br)ccc21", "note": "(racemic) [wiskostatin]", "values": [{"measurement": "inhibition of N-WASP", "setting": "N-WASP", "value": "chemical inhibitors of N-WASP"}, {"measurement": "binding site on WASP", "setting": "WASP; NMR structure", "value": "bound exclusively to the PBD in its autoinhibited conformation"}, {"measurement": "effect on autoinhibited fold of the PBD", "setting": "WASP; biophysical experiments", "value": "stabilizes the autoinhibited fold of the PBD"}]}]}
